pEC50: −log10 of the molar value. Bridge positions count the residues as written; N and C are the ends. Square brackets hold non-standard residues; d marks the D form. Peptide text beside a SMILES is read from it. Ala(cPent) = N[C@@H](CC1CCCC1)C(=O)O; Orn(iPr) = CC(C)NCCC[C@H](N)C(=O)O; Cha = N[C@@H](CC1CCCCC1)C(=O)O; Orn = NCCC[C@H](N)C(=O)O; Dab = NCC[C@H](N)C(=O)O; Ac4c = NC1(C(=O)O)CCC1
Molecular target: T1, hV1a receptor (Homo sapiens, UniProt P37288)
T1 construct: expressed in transfected cells; host or cells: HEK-293
Experiment: hV1a receptor agonist transcriptional reporter (luciferase) assay in transiently transfected HEK-293 cells
Assay type: cell-based
Settings: agonist activity; HEK-293 cells transiently transfected with hV1a receptor and calcium-responsive luciferase reporter; 5 hours exposure; geometric mean of at least three independent experiments; read-out: EC50 (median effective concentration)
Description: Agonist activity of compounds on the hV1a receptor was determined in a transcriptional reporter assay by transiently transfecting a hV1a receptor expression DNA into HEK-293 cells in concert with a reporter DNA containing intracellular calcium responsive promoter elements regulating expression of firefly luciferase. See Boss, V., Talpade, D. J., Murphy, T. J. J. Biol. Chem. 1996, May 3; 271(18), 10429-10432 for further guidance on this assay. […] Arginine-vasopressin (AVP) was used as an internal control in each experiment, and compounds were tested in at least three independent experiments.
The results of the in vitro assays are depicted in table 1 supra. The EC50 value given is the geometric mean expressed in nanomol/L (nM). Selectivity values are given as EC50 ratios.

T1 sequence (P37288 whole entry): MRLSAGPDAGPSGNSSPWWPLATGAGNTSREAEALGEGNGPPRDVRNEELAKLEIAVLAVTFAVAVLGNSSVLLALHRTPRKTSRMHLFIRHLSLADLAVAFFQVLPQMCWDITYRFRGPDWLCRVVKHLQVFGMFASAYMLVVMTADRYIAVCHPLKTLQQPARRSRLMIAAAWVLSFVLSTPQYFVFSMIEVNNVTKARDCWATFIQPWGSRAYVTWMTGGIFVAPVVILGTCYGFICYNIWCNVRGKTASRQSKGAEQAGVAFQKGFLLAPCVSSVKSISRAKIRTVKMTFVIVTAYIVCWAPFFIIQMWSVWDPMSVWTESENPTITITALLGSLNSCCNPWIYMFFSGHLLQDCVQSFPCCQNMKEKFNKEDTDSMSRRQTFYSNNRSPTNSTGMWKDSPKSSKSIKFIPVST

| Structure (SMILES) | pEC50 |
| --- | --- |
| CC[C@H](C)[C@@H]1NC(=O)[C@H](CC2CCCCC2)NC(=O)[C@@H](N)CSSC[C@@H](C(=O)N2CCC[C@H]2C(=O)N[C@@H](CCCNC(C)C)C(=O)NCC(N)=O)NC(=O)[C@H](CC(N)=O)NC(=O)[C@H](CC(N)=O)NC1=O [Compound 4, [Cha^2, Asn^4, Orn (i-Pr)^8]VT] (H-C[Cha]INNCP[Orn(iPr)]G-NH2; disulfide 1-6) | 7.97 |
| CC[C@H](C)[C@@H]1NC(=O)C2(CCC2)NC(=O)[C@@H](N)CSSC[C@@H](C(=O)N2CCC[C@H]2C(=O)N[C@@H](CCCN)C(=O)NCC(N)=O)NC(=O)[C@H](CC(N)=O)NC(=O)[C@H](CC(N)=O)NC1=O [Compound 6] (H-C[Ac4c]INNCP[Orn]G-NH2; disulfide 1-6) | 8.10 |
| CC[C@H](C)[C@@H]1NC(=O)[C@H](CC2CCCC2)NC(=O)[C@@H](N)CSSC[C@@H](C(=O)N2CCC[C@H]2C(=O)N[C@@H](CCCN)C(=O)NCC(N)=O)NC(=O)[C@H](CC(N)=O)NC(=O)[C@H](CC(N)=O)NC1=O [Compound 7] (H-C[Ala(cPent)]INNCP[Orn]G-NH2; disulfide 1-6) | 8.11 |
| CC[C@H](C)[C@@H]1NC(=O)[C@H](CC2CCCCC2)NC(=O)[C@@H](N)CSSC[C@@H](C(=O)N2CCC[C@H]2C(=O)N[C@@H](CCCN)C(=O)NCC(N)=O)NC(=O)[C@H](CC(N)=O)NC(=O)[C@H](CC(N)=O)NC1=O [Compound 8] (H-C[Cha]INNCP[Orn]G-NH2; disulfide 1-6) | 9.12 |
| CC[C@H](C)[C@@H]1NC(=O)C2(CCC2)NC(=O)[C@@H](N)CSSC[C@@H](C(=O)N2CCC[C@H]2C(=O)N[C@@H](CCN)C(=O)NCC(N)=O)NC(=O)[C@H](CC(N)=O)NC(=O)[C@H](CC(N)=O)NC1=O [Compound 9] (H-C[Ac4c]INNCP[Dab]G-NH2; disulfide 1-6; N-terminus assumed) | 7.83 |
| CC[C@H](C)[C@@H]1NC(=O)[C@H](CC2CCCCC2)NC(=O)[C@@H](N)CSSC[C@@H](C(=O)N2CCC[C@H]2C(=O)N[C@@H](CCN)C(=O)NCC(N)=O)NC(=O)[C@H](CC(N)=O)NC(=O)[C@H](CC(N)=O)NC1=O [Compound 12] (H-C[Cha]INNCP[Dab]G-NH2; disulfide 1-6; N-terminus assumed) | 8.64 |
